ChEMBL document CHEMBL1201862, “PubChem BioAssay data set” (2004)
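1) Cells in 96-well plates. 2) Compound, 48 h, 5 concentrations. 3) Linear interpolation between surrounding doses. 4) Unreached endpoint = highest concentration. Here, GI50 denotes the concentration required for 50% inhibition of growth.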 Active and inactive are the calls of the source. No stated cut-off is given here; in the data, active = GI50 up to about 1.1 µM and inactive = higher.

What was measured:
Assay in all cases: growth of human tumour cells (NCI), 48 h
LOX IMVI = system: LOX IMVI
A549 = system: A549
RPMI-8226 = system: RPMI-8226
SN12C = system: SN12C
PC-3 = system: PC-3
K562 = system: K562
SK-OV-3 = system: SK-OV-3
SNB-19 = system: SNB-19
DU-145 = system: DU-145
SK-MEL-28 = system: SK-MEL-28
RXF 393 = system: RXF 393
NCI-H460 = system: NCI-H460
EKVX = system: EKVX
SW-620 = system: SW-620
UO-31 = system: UO-31
MDA-MB-231 = system: MDA-MB-231
BT-549 = system: BT-549
SK-MEL-2 = system: SK-MEL-2
HCT-15 = system: HCT-15
HT-29 = system: HT-29
Malme-3M = system: Malme-3M
OVCAR-3 = system: OVCAR-3
SK-MEL-5 = system: SK-MEL-5
U-251 = system: U-251
OVCAR-4 = system: OVCAR-4
M14 = system: M14
Hs-578T = system: Hs-578T
NCI-H23 = system: NCI-H23
MDA-MB-435 = system: MDA-MB-435
UACC-62 = system: UACC-62
COLO 205 = system: COLO 205
IGROV-1 = system: IGROV-1
NCI-H522 = system: NCI-H522
NCI-H226 = system: NCI-H226
SF-539 = system: SF-539
OVCAR-8 = system: OVCAR-8
A498 = system: A498
NCI/ADR-RES = system: NCI/ADR-RES
786-0 = system: 786-0
TK-10 = system: TK-10
SF-295 = system: SF-295
MCF7 = system: MCF7
CCRF-CEM = system: CCRF-CEM
UACC-257 = system: UACC-257
HL-60 = system: HL-60
MDA-N = system: MDA-N
SF-268 = system: SF-268
HCC 2998 = system: HCC 2998
HOP-62 = system: HOP-62
KM12 = system: KM12
T47D = system: T47D
CAKI-1 = system: CAKI-1
OVCAR-5 = system: OVCAR-5
HCT-116 = system: HCT-116
SNB-75 = system: SNB-75
ACHN = system: ACHN
MOLT-4 = system: MOLT-4
HOP-92 = system: HOP-92

Measured: GI50

NC(=O)Nc1n[nH]c(-c2ccccc2)n1
inactive: LOX IMVI > 100 µM | A549 > 100 µM | RPMI-8226 > 100 µM | SN12C > 100 µM | PC-3 > 100 µM | K562 > 100 µM | SK-OV-3 1.79 µM | SNB-19 > 100 µM | DU-145 > 100 µM | SK-MEL-28 > 100 µM | RXF 393 > 100 µM | NCI-H460 > 100 µM | EKVX > 100 µM | SW-620 > 100 µM | UO-31 > 100 µM | MDA-MB-231 > 100 µM | BT-549 > 100 µM | SK-MEL-2 > 100 µM | HT-29 > 100 µM | Malme-3M > 100 µM | OVCAR-3 > 100 µM | SK-MEL-5 > 100 µM | U-251 > 100 µM | OVCAR-4 > 100 µM | M14 > 100 µM | Hs-578T > 100 µM | NCI-H23 > 100 µM | MDA-MB-435 > 100 µM | UACC-62 > 100 µM | COLO 205 > 100 µM | IGROV-1 > 100 µM | NCI-H522 > 100 µM | NCI-H226 > 100 µM | SF-539 > 100 µM | OVCAR-8 > 100 µM | A498 > 100 µM | NCI/ADR-RES > 100 µM | 786-0 > 100 µM | TK-10 > 100 µM | MCF7 > 100 µM | CCRF-CEM > 100 µM | UACC-257 > 100 µM | HL-60 > 100 µM | MDA-N > 100 µM | SF-268 > 100 µM | HCC 2998 > 100 µM | HOP-62 54.1 µM | KM12 > 100 µM | T47D > 100 µM | CAKI-1 > 100 µM | OVCAR-5 > 100 µM | HCT-116 > 100 µM | SNB-75 > 100 µM | ACHN > 100 µM | MOLT-4 > 100 µM
active: SF-295 0.706 µM
> 100 µM: HCT-15

NN(CC(=O)O)CC(=O)O
inactive: LOX IMVI > 100 µM | A549 > 100 µM | RPMI-8226 > 100 µM | SN12C > 100 µM | PC-3 > 100 µM | K562 > 100 µM | SK-OV-3 > 100 µM | SNB-19 > 100 µM | DU-145 > 100 µM | SK-MEL-28 > 100 µM | NCI-H460 > 100 µM | EKVX > 100 µM | SW-620 > 100 µM | UO-31 > 100 µM | MDA-MB-231 > 100 µM | BT-549 > 100 µM | SK-MEL-2 > 100 µM | HT-29 > 100 µM | Malme-3M > 100 µM | OVCAR-3 > 100 µM | SK-MEL-5 > 100 µM | U-251 > 100 µM | OVCAR-4 > 100 µM | M14 > 100 µM | Hs-578T > 100 µM | NCI-H23 > 100 µM | MDA-MB-435 > 100 µM | UACC-62 > 100 µM | COLO 205 > 100 µM | IGROV-1 > 100 µM | NCI-H522 > 100 µM | NCI-H226 > 100 µM | SF-539 > 100 µM | OVCAR-8 > 100 µM | A498 > 100 µM | NCI/ADR-RES > 100 µM | 786-0 > 100 µM | TK-10 > 100 µM | SF-295 > 100 µM | MCF7 > 100 µM | CCRF-CEM > 100 µM | UACC-257 > 100 µM | HL-60 > 100 µM | MDA-N > 100 µM | SF-268 > 100 µM | HCC 2998 > 100 µM | HOP-62 > 100 µM | KM12 > 100 µM | T47D > 100 µM | CAKI-1 > 100 µM | OVCAR-5 > 100 µM | HCT-116 > 100 µM | ACHN > 100 µM | MOLT-4 > 100 µM
> 100 µM: HCT-15

CCN1C(=O)C(=C/C=C/c2ccc(N(CC)CC)cc2)C(=O)N(CC)C1=S
> 100 µM: HCT-15
inactive: LOX IMVI > 100 µM | A549 > 100 µM | RPMI-8226 > 100 µM | SN12C > 100 µM | PC-3 72.4 µM | K562 83.9 µM | SK-OV-3 > 100 µM | SNB-19 > 100 µM | HOP-92 > 100 µM | DU-145 > 100 µM | SK-MEL-28 > 100 µM | RXF 393 > 100 µM | NCI-H460 > 100 µM | EKVX > 100 µM | SW-620 > 100 µM | UO-31 > 100 µM | MDA-MB-231 > 100 µM | BT-549 40.7 µM | SK-MEL-2 68.5 µM | HT-29 > 100 µM | OVCAR-3 18 µM | SK-MEL-5 > 100 µM | U-251 > 100 µM | OVCAR-4 > 100 µM | M14 > 100 µM | Hs-578T > 100 µM | NCI-H23 > 100 µM | MDA-MB-435 86.9 µM | UACC-62 87.5 µM | COLO 205 > 100 µM | IGROV-1 > 100 µM | NCI-H226 93.3 µM | SF-539 72.1 µM | OVCAR-8 > 100 µM | NCI/ADR-RES 33.9 µM | 786-0 > 100 µM | TK-10 > 100 µM | SF-295 > 100 µM | MCF7 > 100 µM | CCRF-CEM 32.4 µM | UACC-257 > 100 µM | HL-60 23.6 µM | MDA-N 74.8 µM | SF-268 > 100 µM | HCC 2998 > 100 µM | HOP-62 21.7 µM | KM12 > 100 µM | T47D > 100 µM | CAKI-1 > 100 µM | OVCAR-5 > 100 µM | HCT-116 > 100 µM | ACHN > 100 µM | MOLT-4 33.9 µM

C=CCN1CCC(OC(=O)C(O)(/C=C\CC)C2CCCC2)CC1 (centres undefined)
inactive: LOX IMVI > 100 µM | A549 > 100 µM | RPMI-8226 > 100 µM | SN12C > 100 µM | PC-3 > 100 µM | K562 > 100 µM | SK-OV-3 > 100 µM | SNB-19 > 100 µM | HOP-92 38.2 µM | DU-145 > 100 µM | SK-MEL-28 > 100 µM | RXF 393 > 100 µM | EKVX > 100 µM | UO-31 > 100 µM | MDA-MB-231 > 100 µM | BT-549 > 100 µM | SK-MEL-2 > 100 µM | HT-29 > 100 µM | Malme-3M > 100 µM | OVCAR-3 > 100 µM | SK-MEL-5 > 100 µM | U-251 > 100 µM | OVCAR-4 > 100 µM | M14 > 100 µM | Hs-578T > 100 µM | NCI-H23 8.71 µM | MDA-MB-435 > 100 µM | UACC-62 > 100 µM | COLO 205 > 100 µM | IGROV-1 > 100 µM | NCI-H522 > 100 µM | NCI-H226 > 100 µM | SF-539 > 100 µM | OVCAR-8 > 100 µM | A498 > 100 µM | NCI/ADR-RES > 100 µM | 786-0 > 100 µM | TK-10 > 100 µM | SF-295 > 100 µM | MCF7 > 100 µM | CCRF-CEM > 100 µM | HL-60 > 100 µM | MDA-N > 100 µM | SF-268 > 100 µM | HOP-62 > 100 µM | T47D > 100 µM | CAKI-1 > 100 µM | OVCAR-5 > 100 µM | HCT-116 > 100 µM | SNB-75 > 100 µM | ACHN > 100 µM | MOLT-4 > 100 µM
active: UACC-257 0.525 µM
> 100 µM: HCT-15

CN(Cc1cnc2nc(N)nc(N)c2n1)c1ccc(C(=O)NCS(=O)(=O)O)cc1
> 100 µM: HCT-15
inactive: LOX IMVI 90.4 µM | A549 95.7 µM | RPMI-8226 > 100 µM | SN12C > 100 µM | PC-3 48.1 µM | K562 > 100 µM | SK-OV-3 > 100 µM | SNB-19 > 100 µM | HOP-92 1.34 µM | DU-145 25.7 µM | SK-MEL-28 > 100 µM | NCI-H460 92.7 µM | EKVX > 100 µM | SW-620 78.5 µM | UO-31 > 100 µM | MDA-MB-231 > 100 µM | BT-549 > 100 µM | SK-MEL-2 > 100 µM | HT-29 > 100 µM | Malme-3M > 100 µM | OVCAR-3 > 100 µM | SK-MEL-5 > 100 µM | U-251 > 100 µM | OVCAR-4 > 100 µM | M14 > 100 µM | Hs-578T > 100 µM | NCI-H23 > 100 µM | MDA-MB-435 91.2 µM | UACC-62 > 100 µM | COLO 205 > 100 µM | IGROV-1 > 100 µM | NCI-H522 > 100 µM | NCI-H226 > 100 µM | SF-539 85.7 µM | OVCAR-8 > 100 µM | A498 > 100 µM | NCI/ADR-RES 34.3 µM | 786-0 59.3 µM | TK-10 > 100 µM | SF-295 > 100 µM | MCF7 57.9 µM | UACC-257 > 100 µM | MDA-N 63.1 µM | SF-268 33.3 µM | HCC 2998 > 100 µM | HOP-62 > 100 µM | KM12 60.1 µM | T47D > 100 µM | OVCAR-5 > 100 µM | HCT-116 43.3 µM | SNB-75 29.4 µM | ACHN 64.9 µM | MOLT-4 68.2 µM
